Legend:
[1] = Rat cerebrospinal fluid (CSF) pharmacokinetic properties (Example 4); type: in vivo; settings: male, Sprague-Dawley
Procedure: Protocol PK in rats was determined following oral dosing. For the oral (PO) experiments, a group of 6 male Sprague-Dawley rats with an indwelling catheter placed in the cistema magna were used. The PO group was dosed with 10 mg/kg or 1 mg/kg of a compound formulated as a solution in PEG400. PO doses were administered by oral gavage and delivered to the stomach using a syringe and gavage tube. Following oral dosage administration, the gavage tube was flushed with approximately 0.5 mL of water to ensure complete delivery of the full dose.
Plasma samples were collected as follows: samples of CSF and blood were collected at 1 hour, 2, and optionally at 4 hours post-dosing. CSF samples (0.05 mL) were collected through the intracisternal catheter. Blood samples (0.25 mL) were collected through retro-orbital sampling. These samples were kept on ice until processed for plasma. Blood samples were centrifuged at 3200 rpm for 5 minutes at approximately 5° C. within 1 hour of collection. Plasma was directly transferred to a 96-well plate tube (0.125 mL). Plug caps were placed on the tubes and the tubes frozen at approximately −70° C. and stored until analysis. Plasma was collected and analyzed for the presence of a compound.
(§1) Quantitation of Compounds. The compound in question and the internal standard were extracted from plasma and CSF by precipitation. Samples were analyzed using liquid chromatography (LC) with tandem mass spectrometric detection (MS/MS) using electrospray ionization. The standard curve range was from 1 to 1000 ng/mL. Results of the compounds described herein in this assay are illustrated in Table 4a below (10 mg/kg dose) and Tables 4b and 4c below (1 mg/kg).
(§2) Kp,uu is defined as the concentration ratio of unbound drug in CSF to unbound drug in plasma. Unbound drug in plasma (or free plasma concentration) is calculated by multiplying the total plasma concentration by the unbound fraction as determined by plasma protein binding. The CSF concentration is then divided by the free plasma concentration to determine the Kp,uu. (See e.g., Di et al., J. Med. Chem., 56, 2-12 (2013))

[2] = system: cGMP in rat primary neurons; assay: cGMP neuronal cell-based assay (Example 3); settings: Primary neuron; rat primary hippocampal neurons; 30 μM DETA-NO; cGMP by LC-MS/MS; 50% of high control (10 μM Compound Y); read-out: Abs EC50
Procedure: Rat primary neurons were isolated from fetuses of 18-day pregnant Sprague-Dawley females. The fetuses were collected in Hanks' balanced salt solution (HBSS) and brains were rapidly removed. The cerebral hippocampi were isolated and mechanically fragmented. Further tissue digestion was performed with 0.25% (wt/vol) trypsin solution in HBSS without Ca2+ and Mg2+ for 15 min at 37° C. After trypsination, cells were washed and resuspended in neurobasal medium supplemented with 0.5 mM L-glutamine, 12.5 uM glutamic acid, 2% B-27 and 100 U/mL penicillin, and 100 μg/mL streptomycin. Cells were plated at a density of 4×10^4 cells/well in a poly-D-lysine coated 384-well flat clear-bottom plate (Corning Cat No 354662). Cells were incubated 6-7 days at 37° C. in a humidified chamber with 5% CO2. Media was removed and cells were washed 1× with HBSS containing Ca2+ and Mg2+, and replaced with 40 uL HBSS containing 0.5 mM IBMX, and incubated for 15 minutes at 37° C. 10 uL of a 5× stock of test compounds with diethylenetriamine NONOate (DETA-NO) was added. Final concentration of DETA-NO was 30 μM. Cells were incubated for 20 min at 37° C. Medium was removed, 50 uL of ice-cold 10% acetic acid was added, and incubated for 60 minutes at 4° C. Following centrifugation at 4° C. for 5 minutes at 1000×g to pellet cell debris, the supernatant was aspirated to a clean plate and the samples were analyzed for cGMP content. cGMP concentrations were determined from each sample using LC-MS/MS.
Data were normalized to a high control using the following equation: 100*(Sample−Low Control)/(High Control−Low Control), where the low control is the average of 15 samples treated with 1% DMSO, and the high control is the average of 15 samples treated with 10 μM a known sGC stimulator Compound Y. Data were fit using a 4-parameter fit (log(agonist) vs. response—variable slope) using GraphPad Prism Software v.5. n=2 for all compounds. The Absolute EC50 was interpolated from the curve fit and is defined as the concentration at which a given compound elicits 50% of the high control response. Compounds failing to elicit a minimum response of 50% are reported as >30 μM. For compounds run in duplicate or n higher than 2, the result herein given is the geometric mean of the several results obtained.

[3] = Dog cerebrospinal fluid (CSF) pharmacokinetic properties (Example 5); type: in vivo; settings: male, beagle, 1 mg/kg PO
Procedure: Protocol PK in dogs was determined following oral dosing. A group of 4 male beagle dogs were used and the dogs were dosed with 1 mg/kg of a compound formulated as a suspension in 1% HPMC E5, 0.2% Tween 80, and 0.5% MC in water. PO doses were administered by oral gavage in a gelatin capsule and delivered to the stomach using a gavage tube. Following oral dosage administration, the gavage tube was flushed with approximately 10 mL of water to ensure complete delivery of the full dose.
Plasma and CSF samples were collected as follows: samples of CSF and blood were collected at 1, 2, 4 and 8 hours post PO dosing. CSF samples (0.05 mL) were collected from the lumbosacral region (L4/5) via direct needle puncture at the appropriate time points. Blood samples (0.25 mL) were collected via cephalic vein. These samples were kept on ice until processed for plasma. Blood samples were centrifuged at 3200 rpm for 5 minutes at approximately 5° C. within 1 hour of collection. Plasma was directly transferred to a 96-well plate tube (0.125 mL). Plug caps were placed on the tubes and the tubes frozen at approximately −70° C. and stored until analysis. Plasma was collected and analyzed for the presence of a compound.
as §1, with “of the invention” for “in question”, “Tables 5a” for “Table 4a below (10 mg/kg dose)”, “5b” for “Tables 4b and 4c”, “mg/kg dose).” for “mg/kg).”
as §2, with “Chem” for “Chem.,”

rats = assay: Acute and tonic pain: acetic acid test, abdominal cramps (Example 13); settings: Compound I-1 p.o. 10 mg/kg, 120 minutes after treatment
[4] = 10 mg/kg PO, 1 h, unbound CSF/unbound plasma, read-out: Kp,uu (@ 1 h)
[5] = CSF, 10 mg/kg PO, 1 h, read-out: CSF Conc. (nM @ 1 h)

Kp uu at 1 h [1, 4]	concentration at 1 h [1, 5] [nM]	EC50 [2] [µM]	Structure (SMILES)	further results
0.9	210	≤ 0.1	Fc1ccccc1Cc1nc(-c2nc(C(F)(F)F)n[nH]2)cn2ccnc12 [Compound I-1, 8-(2-fluorobenzyl)-6-(3-(trifluoromethyl)-1H-1,2,4-triazol-5-yl)imidazo[1,2-a]pyrazine]	Kp uu at 1 h ([1]; CSF / unbound plasma, 1 mg/kg PO, @ 1 h, read-out: Kp,uu): 1; Kp uu at 2 h ([1]; CSF / unbound plasma, 1 mg/kg PO, @ 2 h): 1.4; Kp uu at 4 h ([1]; CSF / unbound plasma, 1 mg/kg PO, @ 4 h): 1.9; concentration at 1 h ([1]; CSF, 1 mg/kg PO, @ 1 h, read-out: CSF Conc.): 21 nM; concentration at 2 h ([1]; CSF, 1 mg/kg PO, @ 2 h, read-out: CSF Conc.): 35 nM; concentration at 4 h ([1]; CSF, 1 mg/kg PO, @ 4 h, read-out: CSF Conc.): 39 nM; Kp uu at 1 h ([3]; CSF / unbound plasma, @ 1 h): 0.7; Kp uu at 2 h ([3]; CSF / unbound plasma, @ 2 h): 0.7; Kp uu at 4 h ([3]; CSF / unbound plasma, @ 4 h): 0.7; Kp uu at 8 h ([3]; CSF / unbound plasma, @ 8 h): 0.4; concentration at 1 h ([3]; CSF, @ 1 h, read-out: CSF Conc.): 34 nM; concentration at 2 h ([3]; CSF, @ 2 h, read-out: CSF Conc.): 34 nM; concentration at 4 h ([3]; CSF, @ 4 h, read-out: CSF Conc.): 19 nM; concentration at 8 h ([3]; CSF, @ 8 h, read-out: CSF Conc.): 2.4 nM; % of activity vs. vehicle (rats): 7%
0.9	59	≤ 0.1	Fc1cccc(Cc2nc(-c3nc(C(F)(F)F)n[nH]3)cn3ccnc23)c1 [Compound I-2, 8-(3-Fluorobenzyl)-6-(3-(trifluoromethyl)-1H-1,2,4-triazol-5-yl)imidazo[1,2-a]pyrazine]	
0.8	6	≤ 0.1	Fc1cccc(Cc2nc(-c3nc(C(F)F)n[nH]3)cn3ccnc23)c1 [Compound I-3, 6-(3-(Difluoromethyl)-1H-1,2,4-triazol-5-yl)-8-(3-fluorobenzyl)imidazo[1,2-a]pyrazine]	
3.1	108	≤ 0.1	Fc1cccc(Cc2nc(-c3nc(C(F)(F)F)n[nH]3)cn3ccnc23)c1F [Compound I-10, 8-(2,3-Difluorobenzyl)-6-(3-(trifluoromethyl)-1H-1,2,4-triazol-5-yl)imidazo[1,2-a]pyrazine]	
2.1	72	≤ 0.1	Fc1cccc(Cc2nc(-c3nc(C(F)F)n[nH]3)cn3ccnc23)c1F [Compound I-11, 8-(2,3-Difluorobenzyl)-6-(3-(difluoromethyl)-1H-1,2,4-triazol-5-yl)imidazo[1,2-a]pyrazine]	
1.7	284	≤ 0.1	Fc1ccccc1Cc1nc(-c2nc(C(F)F)n[nH]2)cn2ccnc12 [Compound I-14, 8-(2-Fluorobenzyl)-6-(3-(difluoromethyl)-1H-1,2,4-triazol-5-yl)imidazo[1,2-a]pyrazine]	
1.6	272	≤ 0.1	Fc1ccccc1Cc1nc(-c2nc(C(F)(F)F)n[nH]2)cn2ncnc12 [Compound I-16, 8-(2-Fluorobenzyl)-6-(3-(trifluoromethyl)-1H-1,2,4-triazol-5-yl)-[1,2,4]triazolo[1,5-a]pyrazine]	

— patent US11731977B2, “SGC stimulators” (Cyclerion Therapeutics, Inc., priority 2016, dated 2023)
